The values below come from patent US12466834B2, “Imidazodiazepinediones and methods of use thereof” (GFB (ABC), LLC, priority 2018, dated 2025).

pEC50: −log10 of the molar value. A value given as a limit tells only on which side of the number the result lay.

For this test, the target named is T1, human TRPC5 (Homo sapiens, UniProt Q9UL62).
T1 construct: expressed in transfected cells
T1 sequence (Q9UL62 1-973): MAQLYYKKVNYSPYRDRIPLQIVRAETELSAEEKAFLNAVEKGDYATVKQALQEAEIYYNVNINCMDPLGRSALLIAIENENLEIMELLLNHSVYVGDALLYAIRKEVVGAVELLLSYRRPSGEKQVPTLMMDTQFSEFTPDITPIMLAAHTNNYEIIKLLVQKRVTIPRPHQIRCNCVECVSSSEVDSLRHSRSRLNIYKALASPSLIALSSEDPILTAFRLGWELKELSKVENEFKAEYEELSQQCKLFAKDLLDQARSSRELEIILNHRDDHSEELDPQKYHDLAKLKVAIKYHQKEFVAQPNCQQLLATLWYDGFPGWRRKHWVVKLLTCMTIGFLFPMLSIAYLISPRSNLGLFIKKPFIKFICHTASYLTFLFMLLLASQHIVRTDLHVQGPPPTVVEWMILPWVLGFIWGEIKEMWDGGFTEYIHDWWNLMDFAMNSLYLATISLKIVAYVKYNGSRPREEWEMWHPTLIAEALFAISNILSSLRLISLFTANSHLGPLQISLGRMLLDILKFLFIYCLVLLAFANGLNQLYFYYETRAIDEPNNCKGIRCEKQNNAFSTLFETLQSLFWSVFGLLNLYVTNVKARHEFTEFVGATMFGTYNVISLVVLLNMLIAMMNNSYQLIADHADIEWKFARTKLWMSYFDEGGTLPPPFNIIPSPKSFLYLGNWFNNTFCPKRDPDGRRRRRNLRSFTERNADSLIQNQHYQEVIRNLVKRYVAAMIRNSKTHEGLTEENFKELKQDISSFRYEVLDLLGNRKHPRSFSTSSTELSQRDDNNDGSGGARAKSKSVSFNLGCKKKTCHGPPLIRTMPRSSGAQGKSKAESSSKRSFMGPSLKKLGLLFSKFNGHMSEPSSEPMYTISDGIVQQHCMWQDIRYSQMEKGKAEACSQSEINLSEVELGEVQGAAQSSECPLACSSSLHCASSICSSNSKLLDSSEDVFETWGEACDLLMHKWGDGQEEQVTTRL
Nature of the test: FLIPR calcium assay, compound activation (agonism) of TRPC5 calcium response. The test is classed as cell-based. As to conditions: ICLN-1633 cells, Fluo-4 calcium response; for pEC50: read-out: Agonist Potency Range (FLIPR). Also on record: key to Agonist Potency Range (FLIPR): A=0.001-1 μM; B=1-10 μM; C=>1 μM; D=tested with a positive result for agonism, but EC50 not calculated. How it is done:
ICLN-1633 cells (HEK-TREx hTRPC5) expressing TRPC5 were generated as follows. Commercially available HekTrex-293 cells were seeded at 0.7×10^6 cells/well in a 1×6-well plate 24 hrs prior to transfection using 2 mL cell growth media containing no antibiotics (1× DMEM/high glucose (Hyclone #SH30022.02); 10% fetal bovine serum (Sigma) 2 mM sodium pyruvate, 10 mM HEPES). The human TRPC5 coding sequence (NM_012471 with a silent T478C mutation) was cloned into pcDNA5/TO (Invitrogen; Cat No. V103320) using hygromycin as the resistance gene and the plasmid (SEQ ID NO:1) propagated using T-Rex-293 cells (Invitrogen; Cat No. R71007) following manufacturer's directions. On day 2, 2 μg of plasmid DNA plus 6 μl of Xtreme-GENE HP reagent in Optimem (200 μl total volume) was prepared and incubated for 15 min at room temperature. This plasmid solution was then gently overlayed dropwise onto each well and the plate was gently swirled to mix complex with the media for approximately 30 seconds. Transfected cells were incubated at 37° C. in a 10% CO2 incubator for 24 hrs. The transfected cells were harvested and transferred into 2×150 mm dishes containing cell growth media with no antibiotics at 37° C.
Compounds were made up to, or supplied as a 10 mM stock solution generally using DMSO as the vehicle. 10-point dose response curves were generated using the Echo-550 acoustic dispenser. Compound source plates were made by serially diluting compound stocks to create 10 mM, 1 mM, and 0.1 mM solutions in DMSO into Echo certified LDV plates. The Echo then serially spotted 100% DMSO stock solutions into source dose response plates to generate a 4-fold dilution scheme. 100% DMSO was added to the spotted dose response plates to bring the final volume to 5 μl. 300 nl of the dose response stock plate was then spotted into pre-incubation and stimulation assay plates. 50 μl of pre-incubation buffer and 100 μl of stimulation buffer was then added to the plates resulting in a final assay test concentration range of 30 μM to 0.0001 μM with a final DMSO concentration of 0.3%.
Human ICLN-1633 cells expressing were plated onto 384 well, black poly-D-lysine-coated microplates and maintained in TRPC5 growth media the day prior to use for experiments. TRPC5 expression was induced by the application of 1 μg/mL tetracycline at the time of plating. Media was removed from the plates and 10 μl of 4 μM of Fluo-4 AM (mixed with equal volume of Pluronic F-127) in Earls's Balanced Salt Solution (EBSS) was added to the cells. Cells were incubated at room temperature, protected from light, for 60-90 minutes. After the incubation period, the dye was removed and replaced with 10 μl of EBSS. Cell, pre-incubation and stimulation plates were loaded onto the FLIPR-II and the assay was initiated. The FLIPR measured a 10 second baseline and then added 10 μl of 2× compounds (or controls). Changes in fluorescence were monitored for an additional 5 minutes. After the 5 minute pre-incubation, 20 μl of 2× riluzole (with 1× compound or controls) was added to the cell plate. The final riluzole stimulation concentration in the assay was 30 μM. After the riluzole addition, changes in fluorescence were monitored for an additional 5 minutes. Reduction in the riluzole-activated calcium response relative to control wells was reported as inhibition. A compound-mediated increase in the riluzole response relative to control riluzole response (no test agent present) with no enhancement of calcium entry during preincubation phase was reported as an agonist response.
Compound activation (agonism) of TRPC5 calcium response was determined as follows. After the initial compound addition, fluorescence was monitored for 5 minutes. The maximum relative fluorescence response (minus the control response of EBSS buffer alone) is captured and exported from the FLIPR. Compound activation is calculated using the following formula: […]

Regarding `C[C@@H]1C(=O)N(C)c2nc(Oc3cccc(F)c3)n(Cc3ccc(Cl)cc3)c2C(=O)N1CCCO` (single isomer, unassigned) [Compound 19], the “Agonist Potency Range (FLIPR)” value was “D”.
Take `O=C1c2c(nc(Oc3cccc(OC(F)(F)F)c3)n2Cc2ccc(Cl)cc2)N2CCC[C@H]2C(=O)N1CCCO` (single isomer, unassigned) [Compound 22]: the pEC50 is 5.00 to 6.00.
Regarding `O=C1c2c(nc(Oc3cccc(OC(F)(F)F)c3)n2Cc2ccc(Cl)cc2)N2CCC[C@@H]2C(=O)N1CCCO` (single isomer, unassigned) [Compound 23], the pEC50 was < 5.00.
As for `CN1CC(=O)N(CCCO)C(=O)c2c1nc(Oc1cccc(OC(F)(F)F)c1)n2Cc1ccc(Cl)cc1` [Compound 21, 1-[(4-chlorophenyl)methyl]-7-(3-hydroxypropyl)-4-methyl-2-[3-(trifluoromethoxy)phenoxy]-1H,4H,5H,6H,7H,8H-imidazo[4,5-e][1,4]diazepine-6,8-dione], the pEC50 is < 5.00.
